Measurements published in PubChem BioAssay AID330 (DTP/NCI, 2004).
Where “and” joins values, the source holds several entries; their conditions need not be identical. Identical values can stand only once. Inconclusive results and toxic doses are left out.

Tested on: P388 leukemia ip, CD2F1 mice, survival T/C
Experiment: NCI In Vivo Anticancer Drug Screen. Data for tumor model P388 Leukemia (intraperitoneal) in CD2F1 (CDF1) mice
Details: endpoint: median survival time, higher = longer survival
Outline: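 Mice carrying the transplanted tumor received test compound or vehicle. Survival was recorded in each group, and the value is the treated-group measurement divided by that of the vehicle-treated control group.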

[1] = dose: 12.5 mg/kg/injection, schedule: Q01DX005 (ip), vehicle: Klucel (hydroxypropylcellulose) (HPC)
[2] = dose: 25.0 mg/kg/injection, schedule: Q01DX005 (ip), vehicle: Klucel (hydroxypropylcellulose) (HPC)
[3] = dose: 50.0 mg/kg/injection, schedule: Q01DX005 (ip), vehicle: Klucel (hydroxypropylcellulose) (HPC)
[4] = dose: 50.0 mg/kg/injection, schedule: Q01DX005 (ip), vehicle: saline
[5] = dose: 100.0 mg/kg/injection, schedule: Q01DX005 (ip), vehicle: saline

`O=C(Nc1c(Cl)cccc1Cl)Oc1cccc2cccnc12` was tested, and the T/C (dose: 15.0 mg/kg/injection, schedule: Q01DX005 (ip), vehicle: saline with Tween-80) was 97 % of control, the T/C (dose: 30.0 mg/kg/injection, schedule: Q01DX005 (ip), vehicle: saline with Tween-80) was 107 % of control and the T/C (dose: 60.0 mg/kg/injection, schedule: Q01DX005 (ip), vehicle: saline with Tween-80) was 100 % of control and 92 % of control.
In the case of `CN(C)c1ccc(N=C2C=CC(=O)C=C2)cc1`, the T/C (dose: 1.5 mg/kg/injection, schedule: Q01DX009 (ip), vehicle: saline with Tween-80) is reported as 101 % of control and 104 % of control and 106 % of control, the T/C (dose: 3.0 mg/kg/injection, schedule: Q01DX009 (ip), vehicle: saline with Tween-80) is reported as 105 % of control and 106 % of control (2×) and the T/C (dose: 6.0 mg/kg/injection, schedule: Q01DX009 (ip), vehicle: saline with Tween-80) is reported as 113 % of control (2×) and 120 % of control. For the same compound, the T/C (dose: 12.0 mg/kg/injection, schedule: Q01DX009 (ip), vehicle: saline with Tween-80) was 100 % of control and 103 % of control and the T/C (dose: 25.0 mg/kg/injection, schedule: Q01DX009 (ip), vehicle: saline with Tween-80) was 102 % of control.
`C#CCNCCCn1c(=O)nc2n(-c3ccccc3)c3ccccc3nc-2c1=O` was tested, and the T/C (dose: 25.0 mg/kg/injection, schedule: Q04DX003 (ip), vehicle: Klucel (hydroxypropylcellulose) (HPC)) was 110 % of control, the T/C (dose: 50.0 mg/kg/injection, schedule: Q04DX003 (ip), vehicle: Klucel (hydroxypropylcellulose) (HPC)) was 106 % of control and the T/C (dose: 100.0 mg/kg/injection, schedule: Q04DX003 (ip), vehicle: Klucel (hydroxypropylcellulose) (HPC)) was 100 % of control and 107 % of control.
`CCCCCn1cc[nH]c1=S` was tested, and the T/C [1] was 101 % of control, the T/C [2] was 104 % of control and the T/C [3] was 100 % of control and 101 % of control. The T/C (dose: 100.0 mg/kg/injection, schedule: Q01DX005 (ip), vehicle: Klucel (hydroxypropylcellulose) (HPC)) was 104 % of control and the T/C (dose: 200.0 mg/kg/injection, schedule: Q01DX005 (ip), vehicle: Klucel (hydroxypropylcellulose) (HPC)) was 110 % of control.
`C=CC/C(=N\OS(=O)(=O)O)SC1OC(CO)C(O)C(O)C1O` (configuration not stated) was tested, and the T/C (dose: 25.0 mg/kg/injection, schedule: Q01DX005 (ip), vehicle: saline) was 92 % of control and 98 % of control, the T/C [4] was 102 % of control [middle of 4 runs] and the T/C [5] was 101 % of control and 102 % of control and 104 % of control. For the same compound, the T/C (dose: 200.0 mg/kg/injection, schedule: Q01DX005 (ip), vehicle: saline) was 100 % of control and 101 % of control and 98 % of control.
In the case of `CCOCC(=O)OC`, the T/C (dose: 50.0 mg/kg/injection, schedule: Q01DX009 (ip), vehicle: saline) is reported as 97 % of control, the T/C (dose: 100.0 mg/kg/injection, schedule: Q01DX009 (ip), vehicle: saline) is reported as 95 % of control and the T/C (dose: 200.0 mg/kg/injection, schedule: Q01DX009 (ip), vehicle: saline) is reported as 100 % of control.
For `COc1ccc(CC2C(=O)NC(C)C(=O)N(C)C3Cc4ccc(cc4)Oc4cc(ccc4O)CC(C(=O)NC(C)C(=O)NC(C)C(=O)N2C)N(C)C3=O)cc1` (configuration not stated), the T/C (dose: 0.19 mg/kg/injection, schedule: Q03HX024 (ip), vehicle: other) was 156 % of control, the T/C (dose: 0.38 mg/kg/injection, schedule: Q03HX024 (ip), vehicle: other) was 171 % of control and the T/C (dose: 0.45 mg/kg/injection, schedule: Q01DX005 (iv), vehicle: other) was 108 % of control. The T/C (dose: 0.5 mg/kg/injection, schedule: Q01DX009 (ip), vehicle: other) was 161 % of control, the T/C (dose: 0.75 mg/kg/injection, schedule: Q03HX024 (ip), vehicle: other) was 167 % of control and the T/C (dose: 0.9 mg/kg/injection, schedule: Q01DX005 (ip), vehicle: other) was 166 % of control. The T/C (dose: 0.9 mg/kg/injection, schedule: Q01DX005 (iv), vehicle: other) was 96 % of control, the T/C (dose: 1.0 mg/kg/injection, schedule: Q01DX009 (ip), vehicle: other) was 172 % of control and the T/C (dose: 1.0 mg/kg/injection, schedule: Q01DX009 (ip), vehicle: saline with Tween-80) was 163 % of control. For the same compound, the T/C (dose: 1.13 mg/kg/injection, schedule: Q01DX001 (iv), vehicle: other) was 103 % of control, the T/C (dose: 1.13 mg/kg/injection, schedule: Q03HX008 (ip), vehicle: other) was 162 % of control and the T/C (dose: 1.5 mg/kg/injection, schedule: Q04DX003 (ip), vehicle: other) was 157 % of control. For the same compound, the T/C (dose: 1.8 mg/kg/injection, schedule: Q01DX005 (ip), vehicle: other) was 173 % of control, the T/C (dose: 1.8 mg/kg/injection, schedule: Q01DX005 (iv), vehicle: other) was 99 % of control and the T/C (dose: 2.0 mg/kg/injection, schedule: Q01DX009 (ip), vehicle: other) was 192 % of control. The T/C (dose: 2.0 mg/kg/injection, schedule: Q01DX009 (ip), vehicle: saline with Tween-80) was 152 % of control and 159 % of control, the T/C (dose: 2.0 mg/kg/injection, schedule: Q01DX009 (oral), vehicle: other) was 105 % of control and the T/C (dose: 2.25 mg/kg/injection, schedule: Q01DX001 (iv), vehicle: other) was 105 % of control. For the same compound, the T/C (dose: 3.0 mg/kg/injection, schedule: Q04DX003 (ip), vehicle: other) was 152 % of control, the T/C (dose: 3.6 mg/kg/injection, schedule: Q01DX005 (ip), vehicle: other) was 163 % of control and the T/C (dose: 3.6 mg/kg/injection, schedule: Q01DX005 (iv), vehicle: other) was 116 % of control. For the same compound, the T/C (dose: 4.0 mg/kg/injection, schedule: Q01DX009 (ip), vehicle: other) was 193 % of control, the T/C (dose: 4.0 mg/kg/injection, schedule: Q01DX009 (ip), vehicle: saline with Tween-80) was 174 % of control and 186 % of control and the T/C (dose: 4.0 mg/kg/injection, schedule: Q01DX009 (oral), vehicle: other) was 103 % of control. The T/C (dose: 4.5 mg/kg/injection, schedule: Q01DX001 (iv), vehicle: other) was 111 % of control, the T/C (dose: 6.0 mg/kg/injection, schedule: Q04DX003 (ip), vehicle: other) was 163 % of control and the T/C (dose: 7.2 mg/kg/injection, schedule: Q01DX005 (ip), vehicle: other) was 182 % of control. For the same compound, the T/C (dose: 7.2 mg/kg/injection, schedule: Q01DX005 (iv), vehicle: other) was 153 % of control, the T/C (dose: 8.0 mg/kg/injection, schedule: Q01DX009 (ip), vehicle: other) was 233 % of control and the T/C (dose: 8.0 mg/kg/injection, schedule: Q01DX009 (ip), vehicle: saline with Tween-80) was 155 % of control. The T/C (dose: 8.0 mg/kg/injection, schedule: Q01DX009 (oral), vehicle: other) was 96 % of control, the T/C (dose: 9.0 mg/kg/injection, schedule: Q01DX001 (iv), vehicle: other) was 123 % of control and the T/C (dose: 12.0 mg/kg/injection, schedule: Q04DX003 (ip), vehicle: other) was 153 % of control. The T/C (dose: 16.0 mg/kg/injection, schedule: Q01DX009 (oral), vehicle: other) was 97 % of control and the T/C (dose: 32.0 mg/kg/injection, schedule: Q01DX009 (oral), vehicle: other) was 94 % of control.
With `CC(=O)Nc1cccc2[nH]c3ccccc3c(=O)c12` the T/C (dose: 50.0 mg/kg/injection, schedule: Q01DX005 (ip), vehicle: saline with Tween-80) was 95 % of control, the T/C (dose: 100.0 mg/kg/injection, schedule: Q01DX005 (ip), vehicle: saline with Tween-80) was 103 % of control and the T/C (dose: 200.0 mg/kg/injection, schedule: Q01DX005 (ip), vehicle: saline with Tween-80) was 93 % of control.
With `C=C=C(COC(C)=O)ON1CCCCC1` the T/C [4] was 111 % of control and the T/C [5] was 111 % of control.
With `CC1CN(c2ccc(Cl)cc2)CCOC(=O)O1` (configuration not stated) the T/C (dose: 100.0 mg/kg/injection, schedule: Q01DX001 (ip), vehicle: saline with Tween-80) was 92 % of control, the T/C (dose: 200.0 mg/kg/injection, schedule: Q01DX001 (ip), vehicle: saline with Tween-80) was 95 % of control and the T/C (dose: 400.0 mg/kg/injection, schedule: Q01DX001 (ip), vehicle: saline with Tween-80) was 92 % of control.
In the case of `O=C(OC1(c2nccc3ccccc23)CCNCC1)c1ccccc1`, the T/C [1] is reported as 111 % of control, the T/C [2] is reported as 109 % of control and the T/C [3] is reported as 103 % of control and 104 % of control.
`C1CCC2[N-]CC3CCCCC3[N-]CC3CCCCC3[N-]CC3CCCCC3[N-]CC2C1.[Ni+2].[O-][Cl+3]([O-])([O-])O` (configuration not stated) was tested, and the T/C (dose: 6.25 mg/kg/injection, schedule: Q01DX009 (ip), vehicle: saline) was 96 % of control.
In the case of `Clc1cccc(Cl)c1C(Cl)Cl`, the T/C (dose: 100.0 mg/kg/injection, schedule: Q04DX003 (ip), vehicle: saline with Tween-80) is reported as 95 % of control, the T/C (dose: 200.0 mg/kg/injection, schedule: Q04DX003 (ip), vehicle: saline with Tween-80) is reported as 109 % of control and the T/C (dose: 400.0 mg/kg/injection, schedule: Q04DX003 (ip), vehicle: saline with Tween-80) is reported as 100 % of control.
In the case of `N#CCCSc1nnc(N)s1`, the T/C (dose: 50.0 mg/kg/injection, schedule: Q01DX009 (ip), vehicle: Klucel (hydroxypropylcellulose) (HPC)) is reported as 108 % of control, the T/C (dose: 100.0 mg/kg/injection, schedule: Q01DX009 (ip), vehicle: Klucel (hydroxypropylcellulose) (HPC)) is reported as 103 % of control and the T/C (dose: 200.0 mg/kg/injection, schedule: Q01DX009 (ip), vehicle: Klucel (hydroxypropylcellulose) (HPC)) is reported as 104 % of control. The T/C (dose: 400.0 mg/kg/injection, schedule: Q01DX009 (ip), vehicle: Klucel (hydroxypropylcellulose) (HPC)) was 100 % of control.
